In US20170165286A1, “COMPOSITIONS AND METHODS FOR TREATING DIABETES AND LIVER DISEASES” (Cempra Pharmaceuticals, Inc., priority 2014, published 2017):
Entries after “also recorded” stand apart in the source; their conditions may differ.

Legend:
STAM mice = assay: STAM model: Sirius red staining, fibrosis area; format: in vivo; settings: for Sirius red-positive area (% of area showing fibrosis): STAM mice liver
Description: NASH-HCC (STAM™) Model. C57BL/6 (15-day-pregnant female) mice are obtained from Charles River Laboratories Japan (Kanagawa, Japan). Male pups are selected for the study. NASH is induced in male mice by a single subcutaneous injection of 200 μg streptozotocin (STZ, Sigma-Aldrich, USA) solution 2 days after birth, followed by feeding a HFD (57 kcal % fat, cat#: HFD32, CLEA Japan, Japan) beginning at 4 weeks of age. At 5 weeks of age, mice are divided into a control group and one or more treated group (generally 8 mice per group). Animals are sacrificed at 9 weeks of age, and biochemical, histological, and gene expression analyses are performed.
During weeks 5-9 (starting at day 35±2), test compound is administered (generally orally) at various doses diluted to 10 mL/kg and according to various dosing protocols to treatment groups (8 mice each) while a second group (8 mice) is administered vehicle only. Animals are sacrificed at 9 weeks.
To visualize collagen deposition (a measure of fibrosis), Bouin's fixed left lateral liver sections are stained using picro-Sirius red solution (Waldeck, Germany).
For quantitative analysis of fibrosis area, bright field images of Sirius red-stained sections are captured around the central vein using a digital camera (DFC280; Leica, Germany) at 200-fold magnification, and the positive areas in 5 fields/section are measured using ImageJ software (National Institute of Health, USA). For quantitative analysis of inflammation area, bright field images of F4/80-immunostained sections are captured around the central vein using a digital camera (DFC280; Leica, Germany) at 200-fold magnification, and the positive areas in 5 fields/section are measured using ImageJ software (National Institute of Health, USA).
Illustrative dose response test groups. Group 1-Normal. Eight normal mice are fed with a normal diet ad libitum without any treatment until 9 weeks of age. Group 2-Vehicle. Eight NASH mice are orally administered vehicle (0.5% w/v methylcellulose+0.2% Tween®80) in a volume of 10 mL/kg twice daily from 5 to 9 week of age. Group 3-solithromycin 5 mg/kg. Eight NASH mice are orally administered vehicle supplemented with solithromycin at a dose of 5 mg/kg in the morning and the vehicle in the evening (5 mg/kg/day) from 5 to 9 weeks of age. Group 4-solithromycin 10 mg/kg. Eight NASH mice are orally administered vehicle supplemented with solithromycin at a dose of 10 mg/kg twice daily (20 mg/kg/day) from 5 to 9 weeks of age. Group 5-solithromycin 25 mg/kg. Eight NASH mice are orally administered vehicle supplemented with solithromycin at a dose of 25 mg/kg twice daily (50 mg/kg/day) from 5 to 9 weeks of age. Group 6-solithromycin 50 mg/kg. Eight NASH mice are orally administered vehicle supplemented with solithromycin at a dose of 50 mg/kg once daily (50 mg/kg/day) from 5 to 9 weeks of age.

[1] = system: BLM-induced pulmonary fibrosis model mice; assay: Bleomycin-induced lung injury: lung histopathology (Masson's Trichrome, Ashcroft score, HE); format: in vivo
Description: Bleomycin-Induced Lung Injury. Lung inflammation is induced in female mice by a single intratracheal administration of bleomycin. Twenty mice are divided into two groups. From Day −2 to Day 6, one group is administered vehicle and the other is administered test drug, such as solithromycin orally at a dose of 100 mg/kg. It is to be understood herein that 100 mg/kg in mice is generally considered to be equivalent to a 450-500 mg, such as 480 mg, dose in humans. Animals are sacrificed on Day 7.
Pathogen-free 7 weeks old female C57BL/6J mice are obtained from CLEA Japan (Tokyo, Japan) and allowed to acclimate at least 6 days. On day 0, twenty mice are induced to develop pulmonary fibrosis by a single intratracheal administration of bleomycin sulphate (BLM, Nippon Kayaku, Japan) in 0.9% saline in a volume of 50 μL per animal using a Microsprayer® (Penn-Century, USA). Individual body weight is measured daily during the experiment period. Survival, clinical signs and behavior of mice is monitored daily.
Solithromycin Reduces Inflammation In Mice Caused By Bleomycin-Induced Lung Injury. […]
Histopathological Analyses. […] The degree of pulmonary fibrosis was evaluated using the Ashcroft score (4) for the quantitative histological analysis.

SMILES: CC[C@H]1OC(=O)[C@@](C)(F)C(=O)[C@H](C)[C@@H](O[C@@H]2O[C@H](C)C[C@H](N(C)C)[C@H]2O)[C@](C)(OC)C[C@@H](C)C(=O)[C@H](C)[C@H]2N(CCCCn3cc(-c4cccc(N)c4)nn3)C(=O)O[C@]12C [solithromycin]
- Sirius red-positive area (% of area showing fibrosis) (STAM mice; 5 mg/kg): no statistically significant differences
- Sirius red-positive area (% of area showing fibrosis) (STAM mice; 5 mg/kg, listed as SOLI): 0.85 ± 0.28%
- Sirius red-positive area (% of area showing fibrosis) (STAM mice; 10 mg/kg): tended to decrease
- Sirius red-positive area (% of area showing fibrosis) (STAM mice; 10 mg/kg, listed as SOLI): 0.72 ± 0.27%
- Sirius red-positive area (% of area showing fibrosis) (STAM mice; 25 mg/kg): significantly decreased; also recorded: Statistically significant reduced fibrosis
- Sirius red-positive area (% of area showing fibrosis) (STAM mice; 25 mg/kg, listed as SOLI): 0.65 ± 0.27 %
- Fibrosis area (Sirius red-positive area) compared to vehicle group (STAM mice; STAM mice, Group 6 (50 mg/kg q.d.)): significantly decreased
- HE staining: alveolar wall thickening, diffuse alveolar destruction, inflammatory cell infiltration vs vehicle [1]: no obvious differences
- Ashcroft score ([1]; vehicle 1.6±0.2): 1.4±0.5
